Data as given in the Deep4Chem optical property database.
Each block holds one compound with its values, some of them ahead of it.

Experiment: solvent given as SMILES

SMILES: CCOC(=O)c1cc2ccc3ccccc3c2c(C(=O)OCC)c1N
absorption maximum (in Cc1ccccc1): 427 nm

SMILES: CC(C)(C)c1ccc(C(C)(C)C)c(N2C(=O)c3cccc4c(-c5ccc(-c6ccc([N+](=O)[O-])cc6)s5)ccc(c34)C2=O)c1
absorption maximum (in CO): 393 nm | absorption maximum (in CS(C)=O): 400 nm | absorption maximum (in Cc1ccccc1): 392 nm

SMILES: N#Cc1ccc(-c2cc(-c3ccc(N4CCCC4)cc3)nc(-c3ccccc3)n2)cc1
absorption maximum (in ClC(Cl)Cl): 385 nm

SMILES: O=P1(c2ccccc2)C(c2ccc(N(c3ccccc3)c3ccccc3)cc2)=Cc2ccccc21 (configuration not stated)
absorption maximum (in C1CCOC1): 408 nm | absorption maximum (in CC#N): 407 nm | absorption maximum (in CN(C)C=O): 410 nm | absorption maximum (in Cc1ccccc1): 413 nm | absorption maximum (in ClC(Cl)Cl): 418 nm | absorption maximum (in ClCCl): 415 nm

SMILES: C[N+]1=C(/C=C/C=C2/N(CCC[N+](C)(C)C)c3ccc(Br)cc3C2(C)C)C(C)(C)c2ccccc21
absorption maximum (in CS(C)=O): 556 nm

SMILES: CC(C)=C(C)C
absorption maximum (in CCCCCCC): 196 nm

SMILES: N#Cc1c(N2CCCCC2)cc(-c2ccc3ccc4cccc5ccc2c3c45)c2c1-c1ccccc1C2=O
absorption maximum (in C1CCOC1): 393 nm

SMILES: CCCCCCC1(CCCCCC)c2cc(-c3nc(-c4ccc5c(c4)C(CCCCCC)(CCCCCC)c4cc(-n6c7ccc(C(C)(C)C)cc7c7cc(C(C)(C)C)ccc76)ccc4-5)nc(-c4ccc5c(c4)C(CCCCCC)(CCCCCC)c4cc(-n6c7ccc(C(C)(C)C)cc7c7cc(C(C)(C)C)ccc76)ccc4-5)n3)ccc2-c2ccc(-n3c4ccc(C(C)(C)C)cc4c4cc(C(C)(C)C)ccc43)cc21
absorption maximum (in C1CCOC1): 382 nm

SMILES: COc1ccc(C2=[N+]3C(=Nc4c(-c5cc(OC)c(OC)c(OC)c5)c(Br)c(-c5ccc(OC)cc5)n4[B-]3(F)F)C(c3cc(OC)c(OC)c(OC)c3)=C2Br)cc1
absorption maximum (in Cc1ccccc1): 689 nm

SMILES: CC(C)(C)c1ccc2c(c1)c1cc(C(C)(C)C)cc3c1n2-c1cc(-c2ccc(F)cc2)cc2c1B3c1cc(C(C)(C)C)cc3c4cc(C(C)(C)C)ccc4n-2c13
absorption maximum (in Cc1ccccc1): 469.92 nm

SMILES: COC(=O)C1CCN(c2ccc3c(N4CCCCC4)c4ccc(=[N+]5CCC(C(=O)OC)CC5)cc-4oc3c2)CC1 (configuration not stated)
absorption maximum (in ClCCl): 482 nm

SMILES: c1csc(-c2ccc(-c3cccs3)c3nsnc23)c1
absorption maximum (in ClC(Cl)Cl): 445 nm

SMILES: COc1ccc(N(c2ccc(OC)cc2)c2ccc3c4cccc5c(N(c6ccc(OC)cc6)c6ccc(OC)cc6)ccc(c6cccc2c63)c54)cc1
absorption maximum (in C1CCCCC1): 519 nm | absorption maximum (in C1CCOC1): 515 nm | absorption maximum (in CC#N): 508 nm | absorption maximum (in Cc1ccccc1): 519 nm | absorption maximum (in ClCCl): 514 nm

SMILES: O=S(=O)(/N=c1\oc2cccc3c4c(-c5ccccc5)oc5cccc(c(c1-c1ccccc1)c23)c54)C(F)(F)F
absorption maximum (in CCCCCC): 458 nm | absorption maximum (in CO): 456 nm | absorption maximum (in CS(C)=O): 463 nm | absorption maximum (in ClC(Cl)Cl): 460 nm | absorption maximum (in ClCCl): 463 nm

SMILES: Cc1cc(-c2ccc(-c3nc4ccccc4[nH]3)cc2)c(C)cc1-c1ccc(-c2nc3ccccc3[nH]2)cc1
absorption maximum (in CN(C)C=O): 323 nm

SMILES: CCCCNc1nn(-c2ccc(OC)cc2)nc1C#N
absorption maximum (in CC#N): 328 nm

SMILES: c1ccc2c(c1)[nH]c1c3[nH]c4ccccc4c3c3nsnc3c21
absorption maximum (in CN(C)C=O): 410 nm | absorption maximum (in Cc1ccccc1): 410 nm | absorption maximum (in ClCCl): 410 nm

SMILES: c1ccc(-c2nc3c(c4c2-c2ccccc2CC4)-c2ccccc2CC3)cc1
absorption maximum (in C1CCOC1): 314 nm | absorption maximum (in CC#N): 308 nm | absorption maximum (in CCCCCC): 309 nm | absorption maximum (in CCOC(C)=O): 314 nm | absorption maximum (in CO): 318 nm | absorption maximum (in CS(C)=O): 316 nm | absorption maximum (in Cc1ccccc1): 312 nm | absorption maximum (in ClCCl): 318 nm

SMILES: O=CC1=C(c2ccc(-c3cccs3)s2)CCC1
absorption maximum (in C1CCOC1): 377 nm | absorption maximum (in CC#N): 374 nm | absorption maximum (in CCCCCC): 366 nm | absorption maximum (in CCO): 386 nm | absorption maximum (in OCCOCCO): 377 nm | absorption maximum (in c1ccncc1): 385 nm

SMILES: COc1cc2c(c(OC)c1OC)c1ccc3cccc4c5cccc6oc(=O)c2c(c65)c1c34
absorption maximum (in C1CCOC1): 417 nm

SMILES: Cc1c(COC(=O)Cc2ccccc2)n2c(OCC(=O)Cc3ccccc3)c(C)c(=O)n2c1=O
absorption maximum (in CCO): 379 nm

SMILES: CCOc1cc2c(cc1/C=C/C1=CC(=C(C#N)C#N)CC(C)(C)C1)c1ccccc1n2CC
absorption maximum (in C1CCOC1): 476 nm | absorption maximum (in CC#N): 474 nm | absorption maximum (in CCO): 480 nm | absorption maximum (in CCOC(C)=O): 469 nm | absorption maximum (in CN(C)C=O): 487 nm | absorption maximum (in CS(C)=O): 491 nm | absorption maximum (in Cc1ccccc1): 474 nm | absorption maximum (in ClC(Cl)Cl): 480 nm | absorption maximum (in ClCCl): 479 nm

SMILES: CN1C(=CC2=C([O-])C(=Cc3oc4ccccc4[n+]3C)C2=O)C(C)(C)c2ccccc21
absorption maximum (in ClC(Cl)Cl): 608 nm

SMILES: COc1ccc2oc(=N)c(C#N)cc2c1
absorption maximum (in ClCCl): 388 nm

SMILES: CCC1=C(C)C2=Cc3c4ccccc4c4n3[B-](c3ccncc3)(Oc3ccccc3-4)[N+]2=C1C (configuration not stated)
absorption maximum (in CC#N): 621 nm | absorption maximum (in CCCCCC): 625 nm | absorption maximum (in Cc1ccccc1): 629 nm | absorption maximum (in ClCCl): 627 nm

SMILES: CC(=O)Nc1ccccc1C(=O)OC1CC(C)CCC1C(C)C (configuration not stated)
absorption maximum (in C1CCCCC1): 315 nm | absorption maximum (in CC#N): 310 nm | absorption maximum (in CCO): 310 nm | absorption maximum (in CO): 307 nm | absorption maximum (in Cc1ccccc1): 313 nm | absorption maximum (in ClC(Cl)Cl): 312 nm | absorption maximum (in ClCCl): 310 nm

SMILES: O=c1c2cc(F)c(N3CCOCC3)cc2sc2cc(N3CCOCC3)c(F)cc12
absorption maximum (in CCO): 361 nm

SMILES: CCCCCCCCCCn1c(-c2cc(-c3nc4ccc(C)cc4n3CCCCCCCCCC)cc(-c3nc4ccc(C)cc4n3CCCCCCCCCC)c2)nc2ccc(C)cc21
absorption maximum (in ClCCl): 307.5 nm

Further lines, results first:

absorption maximum (in CO): 815 nm
SMILES: O=S(=O)([O-])CCCCN1C=C/C(=C/C=C/C=C/c2cc[n+](CCCCS(=O)(=O)[O-])c3ccccc23)c2ccccc21

absorption maximum (in C1CCCCC1): 446 nm
SMILES: CCCCc1cc2cccc[n+]2[b-]2c(-c3cccc4[b-]3[n+]3ccccc3cc4CCCC)cccc21

absorption maximum (in ClC(Cl)Cl): 406 nm
SMILES: COc1ccc(C2CC(=O)Oc3c2c2nc4ccccc4nc2c2ccccc32)cc1 (configuration not stated)

absorption maximum (in CS(C)=O): 622 nm
SMILES: F[B-]1(F)C2=C(C=c3c4cccc5cccc(c54)n31)c1cccc3ccc[n+]2c13

absorption maximum (in C1CCOC1): 344 nm
SMILES: N#Cc1c(N2CCCCC2)cc(-c2ccc3ccc4cccc5ccc2c3c45)c2c1Cc1ccccc1-2

absorption maximum (in ClC(Cl)Cl): 700 nm
SMILES: CC1=CC(/C=C/c2ccc(N(C)C)cc2)=[N+]2C1=C(c1ccccc1)c1c(C)cc(/C=C/c3ccc(N(C)C)cc3)n1[B-]2(F)F

absorption maximum (in ClCCl): 649 nm
SMILES: COC(=O)CCC1=CC(C#Cc2cccs2)=[N+]2C1=Cc1c(CCC(=O)OC)cc(C#Cc3cccs3)n1[B-]2(F)F

absorption maximum (in ClCCl): 427 nm
SMILES: C(=C\c1cc(/C=C/c2ccc(N(c3ccccc3)c3ccccc3)cc2)ncn1)/c1ccc(N(c2ccccc2)c2ccccc2)cc1

absorption maximum (in O): 347 nm
SMILES: C=CC1CN2CCC1CC2[C@H](O)c1ccnc2ccc(OC)cc12 (some centres not stated)

absorption maximum (in ClCCl): 428 nm
SMILES: N#Cc1cc(-c2ccc(/C=C/c3ccc(N(c4ccccc4)c4ccccc4)cc3)c(C#N)c2)ccc1/C=C/c1ccc(N(c2ccccc2)c2ccccc2)cc1

absorption maximum (in C1CCCCC1): 455 nm
SMILES: CC(C)(C)C#Cc1ccc2c3cccc4cccc(c5cccc1c52)c43

absorption maximum (in C1CCCCC1): 416 nm | absorption maximum (in CC#N): 417 nm | absorption maximum (in CO): 416 nm | absorption maximum (in ClCCl): 419 nm
SMILES: COc1c2ccccc2c(OC)c2c1c1ccc(C(F)(F)F)cc1n2C

absorption maximum (in CO): 357 nm | absorption maximum (in ClCCl): 363 nm
SMILES: CCCCCCN(CCCCCC)c1ccc(C#Cc2c(F)c(F)c(F)c(F)c2F)cc1

absorption maximum (in O): 660 nm
SMILES: COc1ccc2c(c1)CCC1=C(c3ccccc3)C3=C(c4ccc5cccc(O)c5n4)c4c(-c5ccccc5)c5c(n4[B-](F)(F)[N+]3=C12)-c1ccc(OC)cc1CC5

absorption maximum (in ClC(Cl)Cl): 451 nm
SMILES: CCCCCCc1ccc(-c2ccc(-c3cc(-c4ccc(-c5ccc(CCCCCC)s5)s4)c4ccc5c(-c6ccc(-c7ccc(CCCCCC)s7)s6)cc(-c6ccc(-c7ccc(CCCCCC)s7)s6)c6ccc3c4c65)s2)s1

absorption maximum (in ClCCl): 380 nm
SMILES: O=S1(=O)c2ccccc2C2(c3cc(-c4ccc(N(c5ccccc5)c5ccccc5)cc4)ccc3-c3ccc(-c4ccc(N(c5ccccc5)c5ccccc5)cc4)cc32)c2ccccc21

absorption maximum (in O): 332 nm
SMILES: Nc1ccc2ccc(O)cc2c1

absorption maximum (in C1CCCCC1): 405 nm | absorption maximum (in C1CCOC1): 419 nm | absorption maximum (in CC#N): 422 nm | absorption maximum (in CO): 435 nm | absorption maximum (in CS(C)=O): 434 nm | absorption maximum (in ClCCl): 428 nm | absorption maximum (in O): 446 nm
SMILES: CC1=N/C(=C\c2ccc(N(C)C)cc2)C(=O)N1C

absorption maximum (in CCO): 421 nm
SMILES: CCOC(=O)c1cc(C(=O)OCC)c2cc(N)ccc2n1

absorption maximum (in C1CCCCC1): 260.08 nm
SMILES: Cc1ccccc1-c1ccccc1C

absorption maximum (in CCO): 381 nm
SMILES: O=c1c2cc(F)c(O)cc2n(Cc2ccccc2)c2cc(O)c(F)cc12

absorption maximum (in C1CCOC1): 338 nm | absorption maximum (in CC#N): 338 nm | absorption maximum (in CN(C)C=O): 336 nm | absorption maximum (in ClCCl): 336 nm | absorption maximum (in c1ccccc1): 338 nm
SMILES: CCN1c2ccc(-c3cc(-c4ccccc4)[nH]n3)cc2Sc2cc(-c3cc(-c4ccccc4)[nH]n3)ccc21

absorption maximum (in ClC(Cl)Cl): 516 nm
SMILES: O=Cc1ccc(C#CC(C#Cc2ccc(C=O)o2)=Cc2ccc(C=C(C#Cc3ccc(C=O)o3)C#Cc3ccc(C=O)o3)s2)o1

absorption maximum (in ClCCl): 304 nm
SMILES: O=P(c1ccccc1)(c1ccccc1)c1cccc(-c2nc3ccccc3n2-c2cccc(P(=O)(c3ccccc3)c3ccccc3)c2)c1

absorption maximum (in ClCCl): 345 nm
SMILES: c1ccc(N(c2ccccc2)c2ccc(-c3ccc4c(c3)C3(c5cc(-c6ccc(N(c7ccccc7)c7ccccc7)cc6)ccc5O4)c4ccccc4-c4ccccc43)cc2)cc1

absorption maximum (in CC#N): 524 nm | absorption maximum (in CCCCCC): 534 nm | absorption maximum (in CCOC(C)=O): 527 nm | absorption maximum (in CO): 525 nm | absorption maximum (in ClCCl): 531 nm
SMILES: CCc1c(C)c2n(c1C)[B-](F)(F)[N+]1=C(NCc3ccc(OC)cc3)C=CC1=C2C

absorption maximum (in CN(C)C=O): 396 nm
SMILES: O=C([O-])c1ccc(C(=O)[O-])c2cc3ccccc3cc12

absorption maximum (in CCOC(C)=O): 474 nm
SMILES: COC(=O)c1ccc(/N=N/c2cc3c4c(c2)CCCN4CCC3)cc1

absorption maximum (in C1CCCCC1): 405 nm
SMILES: N#Cc1cc(-c2ccccc2)c(N2c3ccccc3Oc3ccccc32)c(-c2ccccc2)c1

absorption maximum (in ClCCl): 310 nm
SMILES: Cc1cc2ccsc2c2[nH]c3ccccc3c12
